Results as given in US12077768B2, “Plants having increased tolerance to herbicides” (BASF AGRO B.V., priority 2013, dated 2024).

System: mutated PPO sequences (e.g. SEQ ID NOs: 1, 30, 31, 11, 37, and 117) as wildtype or with respective mutations, expressed in leaf discs
Assay: Herbicide tolerance of transiently transformed tobacco leaf discs expressing wildtype or mutated PPO: tolerance factors from IC50 of PSII yield inhibition versus empty vector
Assay type: cell-based, Nicotiana benthamiana

C#CCN1C(=O)C(F)(F)Oc2cc(F)c(-n3c(=O)n(C)c(=S)n(C)c3=O)cc21 [1,5-dimethyl-6-thioxo-3-(2,2,7-trifluoro-3-oxo-4-(prop-2-ynyl)-3,4-dihydro-2H-benzo[b][1,4]oxazin-6-yl)-1,3,5-triazinane-2,4-dione]
Tolerance factor (IC50 of PSII yield inhibition, transformed versus empty vector-transformed leaf discs): 28.7
